# Reference: paper PMC7760838, “Synthesis, Biological, and Computational Evaluation of Antagonistic, Chiral Hydrobenzoin Esters of Arecaidine Targeting mAChR M1” (Pharmaceuticals, 2020)
# Tests used:
# human mAChR M3 = target: T1, human mAChR M3 (Homo sapiens, UniProt P20309); assay: competitive radioligand binding assay with [3H]NMS on CHO cell membranes, M3; details: n ≥ 3, ± standard deviation, read-out: Inhibition constants (Ki) M3
# T1 construct: host or cells: CHO-K1
# Description: (§1) Cell membranes bearing human mAChRs M1-M5 were prepared as described previously. In short, stably transfected CHO cells were grown to confluence in T175 flasks, washed with ice-cold DPBS, and suspended in 2 mL 10 mM Tris/HCl, 1 mM EDTA-buffer (pH 7.4), and 200 µL protease inhibitor using a cell scraper. A cell homogenate was prepared by passing the cell suspension through a G29 needle and subsequently centrifuged (10 min, 1000× g, 4 °C). Ultracentrifugation of the supernatant (30 min, 100,000× g, 4 °C) yielded a membrane pellet, which was suspended in 125 µL 50 mM Tris/HCl-buffer (pH 7.4) per T175 flask and stored at −80 °C. Ten confluent T175 flask were processed for one batch.
# (§2) The membrane-bound activity was recovered by filtration through GF/B filter paper pre-soaked in 0.1 % PEI and measured with a liquid scintillation counter. Maximum binding was measured by using 5 µL plain DMSO, and nonspecific binding was measured by using 5 µL 1 µM scopolamine in DMSO. […] Then, 3–12 µL membrane suspension were used per tube. IC50 values were calculated by a variable slope logistic regression using at least five distinct concentrations of test compound, pipetted in triplicates.
# HPLC-logP determination = type: physicochemical; details: HPLC on apHERA stationary phase (5 µm, 10 × 6 mm), pH 7.4; read-out: HPLC-logPow pH7.4
# [1] = stability in DPBS at 37 °C (UV-HPLC); type: physicochemical; details: for decomposition after 60 h: Sidak's multiple comparisons test; for decomposed after 2 h: linear interpolation between 0 h and 10 h
# Description: (§3) First, 1089 µL DPBS or Ham’s F12 nutrient mixture were mixed with 11 µL of 10 mM stock solution of 1, 2, or 3 in DMSO (final DMSO content: 1%) and agitated at 37 °C. Then, 80 µL of the solution was analyzed by UV-HPLC (216 nm) using an XSelect™ (HSS T3, 3.5 μm, 100 × 4.6 mm) stationary phase and 40% acetonitrile in 25 mM (NH4)H2PO4 buffer (pH 9.3) at a flow of 1 mL/min (k1,2 = 5.6, k3 = 5.9). The fraction of stable compounds was calculated as the area under the curve of the compound peak for each combination of compound and matrix related to the 0 h time point with 100%. Three non-consecutive HPLC analyses were performed for each time point, combination of compounds, and matrix.
# human mAChR M5 = target: T2, human mAChR M5 (Homo sapiens, UniProt P08912); assay: competitive radioligand binding assay with [3H]NMS on CHO cell membranes, M5; details: n ≥ 3, ± standard deviation, read-out: Inhibition constants (Ki) M5
# T2 construct: host or cells: CHO-K1
# T2 sequence (P08912 1-532): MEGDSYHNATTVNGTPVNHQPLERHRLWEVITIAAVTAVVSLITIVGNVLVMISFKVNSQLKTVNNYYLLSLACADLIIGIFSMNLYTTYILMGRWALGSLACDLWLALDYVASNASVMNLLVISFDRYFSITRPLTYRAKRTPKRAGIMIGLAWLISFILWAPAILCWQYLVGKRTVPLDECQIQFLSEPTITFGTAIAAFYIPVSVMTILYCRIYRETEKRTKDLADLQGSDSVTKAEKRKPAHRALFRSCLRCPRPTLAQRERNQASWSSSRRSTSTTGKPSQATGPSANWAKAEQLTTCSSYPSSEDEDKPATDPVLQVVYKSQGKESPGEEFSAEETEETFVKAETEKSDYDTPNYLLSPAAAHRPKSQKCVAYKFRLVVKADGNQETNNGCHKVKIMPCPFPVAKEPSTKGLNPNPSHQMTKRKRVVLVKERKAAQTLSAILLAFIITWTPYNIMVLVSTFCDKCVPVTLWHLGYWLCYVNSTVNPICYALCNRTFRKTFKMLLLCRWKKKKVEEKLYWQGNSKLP
# Description: as §1, §2
# human mAChR M2 = target: T3, human mAChR M2 (Homo sapiens, UniProt P08172); assay: competitive radioligand binding assay with [3H]NMS on CHO cell membranes, M2; details: n ≥ 3, ± standard deviation, read-out: Inhibition constants (Ki) M2
# T3 construct: host or cells: CHO-K1
# T3 sequence (P08172 1-466): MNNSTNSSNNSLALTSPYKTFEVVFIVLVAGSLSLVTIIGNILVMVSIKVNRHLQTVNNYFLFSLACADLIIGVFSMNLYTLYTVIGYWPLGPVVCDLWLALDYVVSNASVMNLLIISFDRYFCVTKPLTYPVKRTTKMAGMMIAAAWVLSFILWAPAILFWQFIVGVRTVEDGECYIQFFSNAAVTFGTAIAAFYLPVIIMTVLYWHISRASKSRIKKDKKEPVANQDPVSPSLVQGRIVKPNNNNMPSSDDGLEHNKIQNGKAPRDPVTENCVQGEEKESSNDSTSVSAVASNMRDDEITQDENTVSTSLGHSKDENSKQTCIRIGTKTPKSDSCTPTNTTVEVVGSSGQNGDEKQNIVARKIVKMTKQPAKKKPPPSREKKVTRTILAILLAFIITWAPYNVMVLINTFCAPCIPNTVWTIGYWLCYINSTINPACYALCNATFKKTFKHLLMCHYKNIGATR
# Description: as §1, §2
# [2] = stability in Ham's F12 cell culture medium at 37 °C (UV-HPLC); type: physicochemical; details: for decomposed after 2 h: linear interpolation between 0 h and 10 h
# Description: as §3
# mAChR M1 [3] = target: T4, mAChR M1 (Homo sapiens, UniProt P11229); assay: Fluo-4 direct calcium assay, antagonist mode (block of carbachol response), CHO-M1 cells; type: cell-based; details: 20 µM carbachol
# T4 construct: host or cells: CHO-K1
# T4 sequence (P11229 1-460): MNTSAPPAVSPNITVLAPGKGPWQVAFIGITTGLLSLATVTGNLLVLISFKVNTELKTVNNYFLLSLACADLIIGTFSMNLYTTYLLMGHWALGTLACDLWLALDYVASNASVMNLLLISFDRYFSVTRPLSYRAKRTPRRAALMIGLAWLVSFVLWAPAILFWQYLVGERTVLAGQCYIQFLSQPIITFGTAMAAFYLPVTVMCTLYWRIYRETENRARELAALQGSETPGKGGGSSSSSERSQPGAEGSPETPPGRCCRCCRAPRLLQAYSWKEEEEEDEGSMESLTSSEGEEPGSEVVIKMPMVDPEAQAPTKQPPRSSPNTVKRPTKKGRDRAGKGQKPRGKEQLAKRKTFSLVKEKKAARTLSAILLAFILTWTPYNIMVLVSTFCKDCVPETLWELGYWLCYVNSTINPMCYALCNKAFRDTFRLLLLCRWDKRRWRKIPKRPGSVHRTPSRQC
# Description: (§4) For the Fluo-4 direct^TM calcium assay kit (invitrogen), 100 µL of a 5 × 10^5 cells/mL suspension of CHO-M1 cells were seeded in black clear bottom 96-well plates (Corning). After settling of the cells for 24 h, the kit was performed according to the supplier’s recommendation. In detail, the media was removed, and 50 µL of Hanks-balanced salt solution (HBSS; Sigma Aldrich) were added, followed by 50 µL of the Fluo-4 buffer solution (including probenecid). The 96-well plates were incubated for 60 min at 37 °C in the dark. For the agonist assay, 100 µL of a double-concentrated dilution series of carbachol (positive control), 1, 2, and 3 were added with the end concentration of 100, 10, 1, 0.1, 0.01 and 0.001 µM in duplicates. The relative fluorescence was measured with an excitation wavelength of 494 nm and an emission wavelength of 516 nm. For the antagonist assay, 50 µL of a 4-fold concentrated dilution series of scopolamine hydrochloride (positive control), 1, 2, and 3 were added in duplicates. Subsequently a 40 µM stock solution of carbachol was added to all wells, and the relative fluorescence was measured with an excitation wavelength of 494 nm and an emission wavelength of 516 nm. Stock solution of 1, 2, and 3 were in DMSO with a final concentration of at most 1% of DMSO. All experiments were performed at least in three repetitions.
# mAChR M1 [4] = target: T4, mAChR M1; assay: Fluo-4 direct calcium assay, agonist mode, CHO-M1 cells; type: cell-based; details: 0.001-100 µM
# Description: as §4
# mAChR M1 [5] = target: T4, mAChR M1; assay: competitive radioligand binding assay with [3H]NMS on CHO cell membranes, M1; details: for Ki: CHO cell membranes, [3H]NMS, n ≥ 3, ± standard deviation, read-out: Inhibition constants (Ki) M1
# Description: as §1, §2
# human mAChR M4 = target: T5, human mAChR M4 (Homo sapiens, UniProt P08173); assay: competitive radioligand binding assay with [3H]NMS on CHO cell membranes, M4; details: n ≥ 3, ± standard deviation, read-out: Inhibition constants (Ki) M4
# T5 construct: host or cells: CHO-K1
# T5 sequence (P08173 1-479): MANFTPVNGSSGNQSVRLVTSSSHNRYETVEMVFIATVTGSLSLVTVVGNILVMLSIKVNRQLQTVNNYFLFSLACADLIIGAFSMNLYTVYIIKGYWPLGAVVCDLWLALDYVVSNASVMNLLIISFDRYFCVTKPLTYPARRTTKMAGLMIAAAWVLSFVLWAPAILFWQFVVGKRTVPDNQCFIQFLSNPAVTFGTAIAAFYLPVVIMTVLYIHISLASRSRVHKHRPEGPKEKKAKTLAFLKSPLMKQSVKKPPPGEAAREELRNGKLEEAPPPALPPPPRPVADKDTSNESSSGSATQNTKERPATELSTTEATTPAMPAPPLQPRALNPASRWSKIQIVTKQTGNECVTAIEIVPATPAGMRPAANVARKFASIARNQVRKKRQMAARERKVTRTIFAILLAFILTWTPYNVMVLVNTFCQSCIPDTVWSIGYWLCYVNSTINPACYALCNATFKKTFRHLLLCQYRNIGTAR
# Description: as §1, §2
# [6] = pH 7.4; cited from earlier work
# T1 sequence (P20309 whole entry): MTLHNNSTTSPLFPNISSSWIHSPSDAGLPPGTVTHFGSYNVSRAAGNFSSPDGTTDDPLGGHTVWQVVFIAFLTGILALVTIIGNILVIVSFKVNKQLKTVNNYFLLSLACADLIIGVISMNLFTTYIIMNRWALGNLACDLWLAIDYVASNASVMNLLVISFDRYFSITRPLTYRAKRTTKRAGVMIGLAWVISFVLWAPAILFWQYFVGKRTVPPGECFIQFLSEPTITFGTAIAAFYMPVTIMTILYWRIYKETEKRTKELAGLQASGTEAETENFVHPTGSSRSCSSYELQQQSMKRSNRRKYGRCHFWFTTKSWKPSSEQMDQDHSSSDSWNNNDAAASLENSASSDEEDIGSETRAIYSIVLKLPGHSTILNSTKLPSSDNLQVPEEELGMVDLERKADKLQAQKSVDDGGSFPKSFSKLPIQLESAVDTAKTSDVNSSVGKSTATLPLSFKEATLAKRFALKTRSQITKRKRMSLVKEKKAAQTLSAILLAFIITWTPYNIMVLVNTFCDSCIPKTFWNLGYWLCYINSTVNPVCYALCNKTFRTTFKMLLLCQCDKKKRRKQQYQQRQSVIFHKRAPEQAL
SMILES,Ki (human mAChR M3) [nM],chromatographic logD (HPLC-logP determination),decomposition after 60 h [1],decomposed after 2 h [1] [%],Ki (human mAChR M5) [nM],Ki (human mAChR M2) [µM],decomposed after 2 h [2] [%],functionality (block of calcium response to carbachol) (mAChR M1 [3]),calcium release (agonistic activity) (mAChR M1 [4]),Ki (mAChR M1 [5]) [nM],Ki (human mAChR M4) [nM],HPLC-logPow pH7.4 [6],decomposition after 60 h [2],selectivity between M1 and M2 (mAChR M1 [5]; Ki M2 divided by Ki M1) [fold],"M1 over M4 subtype selectivity (mAChR M1 [5]; Ki M4 divided by Ki M1, Ki values of this work) [fold]"
"CN1CCC=C(C(=O)O[C@@H](c2ccccc2)[C@@H](O)c2ccccc2)C1 [compound 2, (1S,2S)-(−)-2-hydroxy-1,2-diphenylethyl 1-methyl-1,2,5,6-tetrahydropyridine-3-carboxylate]",1600 ± 300,2.24 ± 0.12,decomposed to the same extent,0.8,1300 ± 300,8 ± 2,2.5,antagonistic binding,no increase in calcium release,800 ± 200,2700 ± 600,,,,
CN1CCC=C(C(=O)OC(c2ccccc2)c2ccccc2)C1 [arecaidine diphenylmethyl ester],,,,,,,,,,,,3.32 ± 0.04,,,
"CN1CCC=C(C(=O)O[C@H](c2ccccc2)[C@H](O)c2ccccc2)C1 [compound 1, (1R,2R)-(+)-2-hydroxy-1,2-diphenylethyl 1-methyl-1,2,5,6-tetrahydropyridine-3-carboxylate]",1300 ± 600,2.24 ± 0.12,decomposed to the same extent,0.8,600 ± 75,1.9 ± 0.3,2.5,antagonistic binding,no increase in calcium release,99 ± 19,700 ± 300,,significantly stronger compared to 2,19,7
"CN1CCC=C(C(=O)O[C@@H](c2ccccc2)[C@H](O)c2ccccc2)C1 (racemic) [compound 3, Rac. (1S,2R)-2-hydroxy-1,2-diphenylethyl 1-methyl-1,2,5,6-tetrahydropyridine-3-carboxylate]",3200 ± 500,2.39 ± 0.1,decomposed to the same extent,0.8,970 ± 90,3.7 ± 1,2.5,antagonistic binding,no increase in calcium release,380 ± 90,1600 ± 200,,,,
